The text below walks through data of patent US12453700B2, “Nano-particles of menaquinone-9 and methods of treatment” (Epizon, Inc., priority 2024, dated 2025).

The data set can be described thus: Dissolution testing of MK-9 API and nanosuspension in Fed State Simulated Intestinal Fluid (FeSSIF). The format is physicochemical. The note with it: for % Dissolution (Avg of n = 3): FeSSIF pH 5, 37° C., 0.01 mg/mL drug load. On the procedure:
MK-9 (menaquinone-9, API) is suspended in an aqueous vehicle containing wetting agent sodium deoxycholate. The API concentration is 4% and the wetting agent concentration was 0.4% w/w. The API particles are milled to a particle size of 155 nm using zirconium milling beads and high shear Beadbeater mixing. The dissolution of the nanosuspension is tested at a concentration of 0.01 mg/mL, in triplicate, in pH 5 Fed State Simulated Intestinal Fluid (FeSSIF).
2. Fill three (3) vessels with 500 mL of FeSSIF media and heat to 37° C.
3. Set up the following dissolution conditions:
4. Vortex suspension x for approximately one minute so that it is uniform. Weigh three (3) aliquots of 0.15 g of the 4% nanosuspension into a tared syringe to give a target 100% dissolution concentration of 0.01 mg/mL. Record weight.
5. Add weighed suspension directly to each vessel.
7. After five minutes, manually pull up 3 mL from each dissolution vessel in a syringe.
8. Attach a 0.2 μm filter to the syringe.
9. Transfer 2 mL of the dissolution sample back into the vessel.
10. Transfer the final 1 mL of sample to an amber HPLC vial and crimp seal.
12. After the 60-minute time-point, mix each vessel for 5 minutes with a high shear mixer.
13. Repeat Step #8-11 and label this sample as ‘infinity’.
14. Run samples on HPLC 10 minutes HPLC method with replicate HPLC standard solutions.
MK-9 (menaquinone-9, API) is suspended in an aqueous vehicle containing wetting agent, sodium deoxycholate. The API concentration is 4% and the wetting agent concentration was 0.4% w/w. The API particles are milled to a particle size of 155 nm by use of zirconium milling beads and high shear Beadbeater mixing. The dissolution of the nanosuspension is tested at a concentration of 0.01 mg/mL, in triplicate, in pH 5 FeSSIF. […] The nano-milling process is scaled up and the suspended nano-particles are removed from the suspension vehicle, dry and formulate into a fast dissolving tablet, and tested.

For the compound `CC(C)=CCC/C(C)=C/CC/C(C)=C/CC/C(C)=C/CC/C(C)=C/CC/C(C)=C/CC/C(C)=C/CC/C(C)=C/CC/C(C)=C/CC1=C(C)C(=O)c2ccccc2C1=O` [API, menaquinone-9], the “% Dissolution (Avg of n = 3)” value runs as follows: (timepoint 0 minute) 0%; (timepoint 10 minute) 96%; (timepoint 10 minute, listed as MK-9 API) “about 20%”; (timepoint 15 minute) 97%; (timepoint 30 minute) 97%; (timepoint 45 minute) 98%. Moreover, the “% Dissolution (Avg of n = 3)” value is 96% (timepoint 60 minute) and 97% (timepoint Infinity (after 5 minutes high shear mixing)). The “% Dissolution (dissolution profile)” value (FeSSIF, at about 120 mins) is reported as “about 20%”.
